From ChEMBL document CHEMBL5143618, “Design, synthesis, and antitumor activity evaluation of novel acyl sulfonamide spirodienones” (Bioorg Med Chem, 2022)
One block for each molecule: values may come before it. Calls of active or inactive are those of the source. The rule behind the calls is not given here.

Experiments:
MDA-MB-231 [1] = assay: cells; type: functional, cell-based; details: Homo sapiens, MDA-MB-231, 74 h
Description: Antiproliferative activity against human MDA-MB-231 cells assessed as inhibition of cell growth measured after 74 hrs by SRB assay

A549 = assay: cells; type: functional, cell-based; details: Homo sapiens, A549, 74 h
Description: Antiproliferative activity against human A549 cells assessed as inhibition of cell growth measured after 74 hrs by SRB assay

HeLa = assay: cells; type: functional, cell-based; details: Homo sapiens, 74 h
Description: Antiproliferative activity against human HeLa cells assessed as inhibition of cell growth measured after 74 hrs by SRB assay

HepG2 = assay: Antiproliferative activity against human HepG2 cells assessed as inhibition of cell growth measured after 74 hrs by SRB assay; type: functional, cell-based; details: HepG2, 74 h
MDA-MB-231 [2] = assay: Induction of apoptosis in human MDA-MB-231 cells assessed as necrotic cells at 10 uM incubated for 24 hrs by annexin V-FITC and PI staining based flow cytometry analysis (reference value: 0.68 %); type: functional
MDA-MB-231 [3] = assay: Induction of apoptosis in human MDA-MB-231 cells assessed as late apoptotic cells at 10 uM incubated for 24 hrs by annexin V-FITC and PI staining based flow cytometry analysis (reference value: 1.02 %); type: functional
MDA-MB-231 [4] = assay: Induction of apoptosis in human MDA-MB-231 cells assessed as early apoptotic cells at 10 uM incubated for 24 hrs by annexin V-FITC and PI staining based flow cytometry analysis (reference value: 4.66 %); type: functional
MDA-MB-231 [5] = assay: Induction of apoptosis in human MDA-MB-231 cells assessed as viable cells at 10 uM incubated for 24 hrs by annexin V-FITC and PI staining based flow cytometry analysis (reference value: 93.6 %); type: functional; details: read-out: Activity
MDA-MB-231 [6] = assay: Induction of cell cycle arrest in human MDA-MB-231 cells assessed as accumulation of cells in G1 phase at 10 uM incubated for 24 hrs by PI staining based flow cytometry analysis (reference value: 74.44 %); type: functional
MDA-MB-231 [7] = assay: Induction of cell cycle arrest in human MDA-MB-231 cells assessed as accumulation of cells in G2 phase at 10 uM incubated for 24 hrs by PI staining based flow cytometry analysis (reference value: 8.95 %); type: functional
MDA-MB-231 [8] = assay: Induction of cell cycle arrest in human MDA-MB-231 cells assessed as accumulation of cells in S phase at 10 uM incubated for 24 hrs by PI staining based flow cytometry analysis (reference value: 16.61 %); type: functional
MDA-MB-231 [9] = assay: Induction of cell cycle arrest in human MDA-MB-231 cells assessed as accumulation of cells in G2/G1 phase at 10 uM incubated for 24 hrs by PI staining based flow cytometry analysis (reference value: 1.80 %); type: functional
[10] = Acute toxicity in Kunming mouse assessed as mortality at 100 mg/kg, ip single dose; type: organism-based; details: in vivo
[11] = Acute toxicity in Kunming mouse assessed as mortality at 150 mg/kg, ip single dose; type: organism-based; details: in vivo, read-out: Activity
[12] = Acute toxicity in Kunming mouse assessed as mortality at 200 mg/kg, ip single dose; type: organism-based; details: in vivo, read-out: Activity
[13] = Acute toxicity in Kunming mouse assessed as mortality at 250 mg/kg, ip single dose; type: organism-based; details: in vivo, read-out: Activity
[14] = Acute toxicity in female Kunming mouse assessed as drug tolerance at 100 to 250 mg/kg, ip single dose measured up to 2 weeks; type: organism-based; details: in vivo, 336 h, dose 100-250 mg/kg
[15] = Acute toxicity in male Kunming mouse assessed as drug tolerance at 100 to 250 mg/kg, ip single dose measured up to 2 weeks; type: organism-based; details: in vivo, 336 h, dose 100-250 mg/kg
[16] = Acute toxicity in female Kunming mouse assessed as body weight gain at 100 to 250 mg/kg, ip single dose measured up to 2 weeks; type: organism-based; details: in vivo, 336 h, dose 100-250 mg/kg
[17] = Acute toxicity in male Kunming mouse assessed as body weight gain at 100 to 250 mg/kg, ip single dose measured up to 2 weeks; type: organism-based; details: in vivo, 336 h, dose 100-250 mg/kg
[18] = Acute toxicity in female Kunming mouse assessed as clinical signs of toxicity in eyes at 100 to 250 mg/kg, ip single dose measured up to 2 weeks; type: organism-based; details: in vivo, 336 h, dose 100-250 mg/kg
[19] = Acute toxicity in male Kunming mouse assessed as clinical signs of toxicity in eyes at 100 to 250 mg/kg, ip single dose measured up to 2 weeks; type: organism-based; details: in vivo, 336 h, dose 100-250 mg/kg
[20] = Acute toxicity in female Kunming mouse assessed as clinical signs of toxicity in skin at 100 to 250 mg/kg, ip single dose measured up to 2 weeks; type: organism-based; details: in vivo, 336 h, dose 100-250 mg/kg
[21] = Acute toxicity in male Kunming mouse assessed as clinical signs of toxicity in skin at 100 to 250 mg/kg, ip single dose measured up to 2 weeks; type: organism-based; details: in vivo, 336 h, dose 100-250 mg/kg
[22] = Acute toxicity in female Kunming mouse assessed as clinical signs of toxicity in fur at 100 to 250 mg/kg, ip single dose measured up to 2 weeks; type: organism-based; details: in vivo, 336 h, dose 100-250 mg/kg
[23] = Acute toxicity in male Kunming mouse assessed as clinical signs of toxicity in fur at 100 to 250 mg/kg, ip single dose measured up to 2 weeks; type: organism-based; details: in vivo, 336 h, dose 100-250 mg/kg
[24] = Acute toxicity in Kunming mouse assessed as pathological changes in heart at 100 to 250 mg/kg, ip single dose by hematoxylin and eosin staining based assay; type: organism-based; details: in vivo, dose 100-250 mg/kg
[25] = Acute toxicity in Kunming mouse assessed as pathological changes in liver at 100 to 250 mg/kg, ip single dose by hematoxylin and eosin staining based assay; type: organism-based; details: in vivo, dose 100-250 mg/kg
[26] = Acute toxicity in Kunming mouse assessed as pathological changes in spleen at 100 to 250 mg/kg, ip single dose by hematoxylin and eosin staining based assay; type: organism-based; details: in vivo, dose 100-250 mg/kg
[27] = Acute toxicity in Kunming mouse assessed as pathological changes in lung at 100 to 250 mg/kg, ip single dose by hematoxylin and eosin staining based assay; type: organism-based; details: in vivo, dose 100-250 mg/kg
[28] = Acute toxicity in Kunming mouse assessed as pathological changes in kidney at 100 to 250 mg/kg, ip single dose by hematoxylin and eosin staining based assay; type: organism-based; details: in vivo, dose 100-250 mg/kg
4T1 [29] = assay: Antitumor activity against mouse 4T1 cells inoculated orthotopic mouse assessed as reduction in tumor volume at 10 mg/kg, ip administered every day measured after 14 days (reference value: 623 mm3); type: functional; details: time 14 day
4T1 [30] = assay: Antitumor activity against mouse 4T1 cells inoculated orthotopic mouse assessed as tumor growth inhibition ratio at 10 mg/kg, ip administered every day measured after 14 days; type: functional; set-up: scale not given: the % may be the effect or the level left; details: time 14 day
[31] = Toxicity in orthotopic mouse inoculated with mouse 4T1 cells assessed as body weight loss at 10 mg/kg, ip administered every day measured after 14 days; type: organism-based; details: in vivo, 336 h, time 14 day
[32] = Toxicity in orthotopic mouse inoculated with mouse 4T1 cells assessed as side effects at 10 mg/kg, ip administered every day measured after 14 days; type: organism-based; details: in vivo, 336 h, time 14 day
[33] = Toxicity in orthotopic mouse inoculated with mouse 4T1 cells assessed as appearance of lesions in heart at 10 mg/kg, ip administered every day measured after 14 days by hematoxylin and eosin staining based assay; type: organism-based; details: in vivo, 336 h, time 14 day
[34] = Toxicity in orthotopic mouse inoculated with mouse 4T1 cells assessed as appearance of lesions in liver at 10 mg/kg, ip administered every day measured after 14 days by hematoxylin and eosin staining based assay; type: organism-based; details: in vivo, 336 h, time 14 day
[35] = Toxicity in orthotopic mouse inoculated with mouse 4T1 cells assessed as appearance of lesions in spleen at 10 mg/kg, ip administered every day measured after 14 days by hematoxylin and eosin staining based assay; type: organism-based; details: in vivo, 336 h, time 14 day
[36] = Toxicity in orthotopic mouse inoculated with mouse 4T1 cells assessed as appearance of lesions in lung at 10 mg/kg, ip administered every day measured after 14 days by hematoxylin and eosin staining based assay; type: organism-based; details: in vivo, 336 h, time 14 day
[37] = Toxicity in orthotopic mouse inoculated with mouse 4T1 cells assessed as appearance of lesions in kidney at 10 mg/kg, ip administered every day measured after 14 days by hematoxylin and eosin staining based assay; type: organism-based; details: in vivo, 336 h, time 14 day
4T1 [38] = assay: Antitumor activity against mouse 4T1 cells inoculated orthotopic mouse assessed as apoptotic cells in tumor tissue by TUNEL assay (reference value: 3.13%); type: functional
4T1 [39] = assay: Antitumor activity against mouse 4T1 cells inoculated orthotopic mouse assessed as change in gross appearance of tumor at 10 mg/kg, ip administered every day measured after 14 days; type: functional, organism-based; details: time 14.0 day
4T1 [40] = assay: Antitumor activity against mouse 4T1 cells inoculated orthotopic mouse assessed as decrease in tumor weight at 10 mg/kg, ip administered every day measured after 14 days; type: functional, organism-based; details: time 14.0 day

IC50 (MDA-MB-231 [1]): 2100 nM
IC50 (A549): > 10000 nM
IC50 (HeLa): 770 nM
IC50 (HepG2): 750 nM
SMILES: O=C1C=CC2(C=C1)OCC(=O)N2S(=O)(=O)c1ccc(C(F)(F)F)cc1

IC50 (MDA-MB-231 [1]): > 10000 nM
IC50 (A549): > 10000 nM
IC50 (HeLa): > 10000 nM
IC50 (HepG2): > 10000 nM
SMILES: O=C1C=CC2(C=C1)OCC(=O)N2S(=O)(=O)c1ccccc1

IC50 (MDA-MB-231 [1]): > 10000 nM
IC50 (A549): 50 nM
IC50 (HeLa): 30 nM
IC50 (HepG2): 240 nM
SMILES: O=C1C=CC2(C=C1)OCC(=O)N2S(=O)(=O)c1ccc(Br)s1

SMILES: COc1ccc(/C=C\c2cc(OC)c(OC)c(OC)c2)cc1O [COMBRETASTATIN A4]
Activity (MDA-MB-231 [2]): 0.73%
Activity (MDA-MB-231 [3]): 4.95%
Activity (MDA-MB-231 [4]): 20.6%
viability at 10 µM (MDA-MB-231 [5]): 73.7%
Activity (MDA-MB-231 [6]): 8.4%
Activity (MDA-MB-231 [7]): 91.6%
Activity (MDA-MB-231 [8]): 0%
Activity (MDA-MB-231 [9]): 1.8%

IC50 (MDA-MB-231 [1]): 1100 nM
IC50 (A549): > 10000 nM
IC50 (HeLa): > 10000 nM
IC50 (HepG2): 540 nM
SMILES: Cc1ccc(S(=O)(=O)N2C(=O)C(C)OC23C=CC(=O)C=C3)cc1 (configuration not stated)

IC50 (MDA-MB-231 [1]): > 10000 nM
IC50 (A549): > 10000 nM
IC50 (HeLa): 880 nM
IC50 (HepG2): 1620 nM
SMILES: COc1ccc(S(=O)(=O)N2C(=O)COC23C=CC(=O)C=C3)cc1

IC50 (MDA-MB-231 [1]): > 10000 nM
IC50 (A549): > 10000 nM
IC50 (HeLa): 20 nM
IC50 (HepG2): 590 nM
SMILES: O=C1C=CC2(C=C1)OCC(=O)N2S(=O)(=O)c1ccccc1C(F)(F)F

SMILES: Cc1ccc(S(=O)(=O)N2C(=O)COC23C=CC(=O)C=C3)cc1
IC50 (MDA-MB-231 [1]): 70 nM
IC50 (A549): 110 nM
Activity [10]: Non-Toxic
IC50 (HeLa): 180 nM
IC50 (HepG2): > 10000 nM
Activity (MDA-MB-231 [2]): 0.72%
Activity (MDA-MB-231 [3]): 3%
Activity (MDA-MB-231 [4]): 10.9%
viability at 10 µM (MDA-MB-231 [5]): 85.4%
mortality [11]: 30%
mortality [12]: 50%
mortality [13]: 60%
Activity [14]: Non-Toxic
Activity [15]: Non-Toxic
Activity [16]: Non-Toxic
Activity [17]: Non-Toxic
Activity [18]: Non-Toxic
Activity [19]: Non-Toxic
Activity [20]: Non-Toxic
Activity [21]: Non-Toxic
Activity [22]: Non-Toxic
Activity [23]: Non-Toxic
Activity [24]: Non-Toxic
Activity [25]: Non-Toxic
Activity [26]: Non-Toxic
Activity [27]: Non-Toxic
Activity [28]: Non-Toxic
Activity (4T1 [29]): 376 mm3
Activity (4T1 [30]): 39%
Activity [31]: Non-Toxic
Activity [32]: Non-Toxic
Activity [33]: Non-Toxic
Activity [34]: Non-Toxic
Activity [35]: Non-Toxic
Activity [36]: Non-Toxic
Activity [37]: Non-Toxic
Activity (4T1 [38]): 95.64%
Activity (MDA-MB-231 [6]): 65.65%
Activity (MDA-MB-231 [7]): 10.29%
Activity (MDA-MB-231 [8]): 24.06%
Activity (MDA-MB-231 [9]): 1.8%
Activity (4T1 [39]): Active
Activity (4T1 [40]): Active

IC50 (MDA-MB-231 [1]): > 10000 nM
IC50 (A549): 40 nM
IC50 (HeLa): > 10000 nM
IC50 (HepG2): > 10000 nM
SMILES: O=C1C=CC2(C=C1)OCC(=O)N2S(=O)(=O)c1ccc(OC(F)(F)F)cc1

IC50 (MDA-MB-231 [1]): > 10000 nM
IC50 (A549): 1910 nM
IC50 (HeLa): 180 nM
IC50 (HepG2): > 10000 nM
SMILES: N#Cc1cccc(S(=O)(=O)N2C(=O)COC23C=CC(=O)C=C3)c1

IC50 (MDA-MB-231 [1]): > 10000 nM
IC50 (A549): 9610 nM
IC50 (HeLa): 570 nM
IC50 (HepG2): > 10000 nM
SMILES: O=C1C=CC2(C=C1)OCC(=O)N2S(=O)(=O)c1cccc(C(F)(F)F)c1
